In PubChem BioAssay AID2060510 (Molecular Pharmacology Branch, DTP, NCI, 2025):

Test system: 439559-082-T-J2-PDC spheroids viability
Test: Anticancer human tumor 439559-082-T-J2-PDC patient-derived colon adenocarcinoma cell line growth inhibition [GQUAD]
Conditions: for IC50: curve of first compound; for viability, T/C: stronger effect = lower value
In short: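 Viability of tumor cells grown as complex spheroids with endothelial and stromal cells, exposed to drug combinations. Top concentration at or near clinical Cmax (else 10 microM), diluted in half-log increments.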
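Also: spheroids exposed to the agents for 7 days before readout.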
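For viability, T/C in this document: percent of luminescence signal in DMSO vehicle wells taken as 100% viability.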

C=CC(=O)N1CCN(c2nc(=O)n(-c3c(C)ccnc3C(C)C)c3nc(-c4c(O)cccc4F)c(F)cc23)C(C)C1 (configuration not stated) + CN(C)c1ccc(Nc2c3ccc(NC(=O)CCN4CCCC4)cc3nc3cc(NC(=O)CCN4CCCC4)ccc23)cc1
IC50 (second compound 0.0316 µM): > 10 µM | IC50 (second compound 0.1 µM): > 10 µM | IC50 (second compound 0.316 µM): > 10 µM | IC50 (second compound 1 µM): > 10 µM | IC50 (second compound 3.16 µM): > 10 µM | IC50 (second compound 10 µM): > 10 µM | viability, T/C (second compound 0.0316 µM, first compound 0.0316 µM): 103% | viability, T/C (second compound 0.0316 µM, first compound 0.1 µM): 91.4% | viability, T/C (second compound 0.0316 µM, first compound 0.316 µM): 93.6% | viability, T/C (second compound 0.0316 µM, first compound 1 µM): 104% | viability, T/C (second compound 0.0316 µM, first compound 3.16 µM): 111% | viability, T/C (second compound 0.0316 µM, first compound 10 µM): 95.4% | viability, T/C (second compound 0.1 µM, first compound 0.0316 µM): 105% | viability, T/C (second compound 0.1 µM, first compound 0.1 µM): 92.2% | viability, T/C (second compound 0.1 µM, first compound 0.316 µM): 104% | viability, T/C (second compound 0.1 µM, first compound 1 µM): 97.6% | viability, T/C (second compound 0.1 µM, first compound 3.16 µM): 111% | viability, T/C (second compound 0.1 µM, first compound 10 µM): 104% | viability, T/C (second compound 0.316 µM, first compound 0.0316 µM): 104% | viability, T/C (second compound 0.316 µM, first compound 0.1 µM): 102% | viability, T/C (second compound 0.316 µM, first compound 0.316 µM): 91.6% | viability, T/C (second compound 0.316 µM, first compound 1 µM): 114% | viability, T/C (second compound 0.316 µM, first compound 3.16 µM): 106% | viability, T/C (second compound 0.316 µM, first compound 10 µM): 110% | viability, T/C (second compound 1 µM, first compound 0.0316 µM): 112% | viability, T/C (second compound 1 µM, first compound 0.1 µM): 96.3% | viability, T/C (second compound 1 µM, first compound 0.316 µM): 105% | viability, T/C (second compound 1 µM, first compound 1 µM): 97.6% | viability, T/C (second compound 1 µM, first compound 3.16 µM): 120% | viability, T/C (second compound 1 µM, first compound 10 µM): 108% | viability, T/C (second compound 3.16 µM, first compound 0.0316 µM): 94.8% | viability, T/C (second compound 3.16 µM, first compound 0.1 µM): 103% | viability, T/C (second compound 3.16 µM, first compound 0.316 µM): 108% | viability, T/C (second compound 3.16 µM, first compound 1 µM): 108% | viability, T/C (second compound 3.16 µM, first compound 3.16 µM): 114% | viability, T/C (second compound 3.16 µM, first compound 10 µM): 108% | viability, T/C (second compound 10 µM, first compound 0.0316 µM): 103% | viability, T/C (second compound 10 µM, first compound 0.1 µM): 96% | viability, T/C (second compound 10 µM, first compound 0.316 µM): 96.8% | viability, T/C (second compound 10 µM, first compound 1 µM): 106% | viability, T/C (second compound 10 µM, first compound 3.16 µM): 109% | viability, T/C (second compound 10 µM, first compound 10 µM): 100%
